Experimental data: US10828315B2 (Madrigal Pharmaceuticals, Inc., priority 2013, dated 2020)

Each molecule was assayed on HER2 (assay: HER2 degradation assay with BT-474 cell line (Example 12, FACS)).
Format: cell-based, human
Source text: HER2 has emerged as a key target for anticancer drugs due to its intrinsic involvement in the phosphatidylinositol-3-kinase-Akt/protein kinase B (PI3K-Akt) and the mitogen-activated protein kinase (MAPK) pathways, both of which suppress apoptosis and promote tumor cell survival, gene transcription, angiogenesis, cellular proliferation, migration, mitosis, and differentiation. The degradation of HER2 is a measure of efficacy of anticancer therapeutics that target Hsp90. Accordingly, the SDC-TRAP molecules of the invention that comprise a binding moiety that binds Hsp90 were tested in the following HER2 degradation assay.
BT-474 cells (human breast cancer cell line ATCC HTB-20) were obtained from ATCC and seeded into 12-well tissue culture plates at 0.2×10^6/1.8 mL/well. […] Each test compound was titrated in 4-fold dilutions from 5 μM to 78 nM with DMSO and 200 μL of the titration was added to each well of the cell plate. The DMSO final concentration was 0.2%. Cells were incubated overnight at 37° C. in 5% CO2.
Media was decanted from the plate, cells were washed 1× in PBS. 400 μL trypsin (EDTA) per well was added, and the cells were incubated for 2 to 3 minutes. Cells were collected into FACS tubes containing 1 ml culture medium to neutralize the trypsin and were centrifuged for 5 minutes at 1200 rpm. Supernatant was decanted and the cells were resuspended in 5 μL FITC (anti HER2/nu)/200 μL staining buffer (1×PBS+1% FBS+0.05% Sodium Azide)/tube. Controls were 5 μL IgG isotype control and staining buffer only. Tubes were incubated for 30 minutes in the dark at room temperature. 1 mL staining buffer was added to each tube and the tubes were centrifuged for 6 minutes at 1200 rpm. The supernatant was decanted and 300 μL staining buffer was added to each tube, which was store at 4° C. fpr FACS (cytometer) analysis. The cytometer readout was normalized and the potency of each compound is evaluated with IC50 calculated with XLfit™ software.

Point of comparison: `CCc1c2c(nc3ccc(OC(=O)N(C)CCCN4CCN(Cc5ccc(-n6c(O)nnc6-c6cc(C(C)C)c(O)cc6O)cc5)CC4)cc13)-c1cc3c(c(=O)n1C2)COC(=O)[C@]3(O)CC` [SDC-TRAP-0065, (S)-4,11-diethyl-4-hydroxy-3,14-dioxo-3,4,12,14-tetrahydro-1H-pyrano[3′,4′:6,7]indolizino[1,2-b]quinolin-9-yl (3-(4-(4-(3-(2,4-dihydroxy-5-isopropylphenyl)-5-hydroxy-4H-1,2,4-triazol-4-yl)benzyl)piperazin-1-yl)propyl)(methyl)carbamate], IC50 661 nM. Against it:
- Cc1cc(C(=O)N2CCN(Cc3ccc(-n4c(O)nnc4-c4cc(C(C)C)c(O)cc4O)cc3F)CC2)cc(C)c1OC(=O)Nc1cccc2c1CN(C1CCC(=O)NC1=O)C2=O (centres unmarked) [SDC-TRAP-0168, 4-(4-(4-(3-(2,4-dihydroxy-5-isopropylphenyl)-5-hydroxy-4H-1,2,4-triazol-4-yl)-2-fluorobenzyl)piperazine-1-carbonyl)-2,6-dimethylphenyl (2-(2,6-dioxopiperidin-3-yl)-1-oxoisoindolin-4-yl)carbamate] — 2.4-fold lower, 276 nM
- CCc1c2c(nc3ccc(OC(=O)N4CCC(Oc5ccc(-n6c(O)nnc6-c6cc(C(C)C)c(O)cc6O)cc5)CC4)cc13)-c1cc3c(c(=O)n1C2)COC(=O)[C@]3(O)CC [SDC-TRAP-0011, (S)-4,11-diethyl-4-hydroxy-3,14-dioxo-3,4,12,14-tetrahydro-1H-pyrano[3′,4′:6,7]indolizino[1,2-b]quinolin-9-yl 4-(4-(3-(2,4-dihydroxy-5-isopropylphenyl)-5-hydroxy-4H-1,2,4-triazol-4-yl)phenoxy) piperidine-1-carboxylate] — higher, > 5000 nM
- CCc1c2c(nc3ccc(O)cc13)-c1cc3c(c(=O)n1C2)COC(=O)C3(CC)OC(=O)C1CCN(C(=O)CN2CCN(c3ccc(-n4c(O)nnc4-c4cc(C(C)C)c(O)cc4O)cc3)CC2)CC1 (centres unmarked) [SDC-TRAP-0111, 4,11-Diethyl-9-hydroxy-3,14-dioxo-3,4,12,14-tetrahydro-1H-pyrano[3′,4′:6,7]indolizino[1,2-b]quinolin-4-yl 1-(2-(4-(4-(3-(2,4-dihydroxy-5-isopropylphenyl)-5-hydroxy-4H-1,2,4-triazol-4-yl)phenyl)piperazin-1-yl)acetyl)piperidine-4-carboxylate] — higher, > 5000 nM
- CCc1c2c(nc3ccc(OC(=O)N4CCC(CN5CCN(Cc6ccc(-n7c(O)nnc7-c7cc(C(C)C)c(O)cc7O)cc6)CC5)CC4)cc13)-c1cc3c(c(=O)n1C2)COC(=O)[C@]3(O)CC [SDC-TRAP-0088] — 3-fold lower, 221 nM
- CCNC(=O)c1nnc(-c2cc(C(C)C)c(O)cc2O)n1-c1ccc(Oc2ccc(C(=O)N(C)CCC(=O)OC3(CC)C(=O)OCc4c3cc3n(c4=O)Cc4c-3nc3ccc(O)cc3c4CC)cc2)cc1 (centres unmarked) [SDC-TRAP-0169, 4,11-diethyl-9-hydroxy-3,14-dioxo-3,4,12,14-tetrahydro-1H-pyrano[3′,4′:6,7]indolizino[1,2-b]quinolin-4-yl 3-(4-(4-(3-(2,4-dihydroxy-5-isopropylphenyl)-5-(ethylcarbamoyl)-4H-1,2,4-triazol-4-yl)phenoxy)-N-methylbenzamido)propanoate] — within 1.5-fold, 611 nM
- CCc1c2c(nc3ccc(OC(=O)N4CCC(CCN5CCN(c6ccc(-n7c(O)nnc7-c7cc(C(C)C)c(O)cc7O)cc6)CC5)CC4)cc13)-c1cc3c(c(=O)n1C2)COC(=O)C3(O)CC (centres unmarked) [SDC-TRAP-0070, 4,11-diethyl-4-hydroxy-3,14-dioxo-3,4,12,14-tetrahydro-1H-pyrano[3′,4′:6,7]indolizino[1,2-b]quinolin-9-yl 4-(2-(4-(4-(3-(2,4-dihydroxy-5-isopropylphenyl)-5-hydroxy-4H-1,2,4-triazol-4-yl)phenyl)piperazin-1-yl)ethyl)piperidine-1-carboxylate] — 2.5-fold lower, 263 nM
- CCNC(=O)c1nnc(-c2cc(C(C)C)c(O)cc2O)n1-c1ccc(C(=O)N2CCN(c3ccc(OC(=O)Nc4cccc5c4CN(C4CCC(=O)NC4=O)C5=O)cc3)CC2)cc1 (centres unmarked) — 2.6-fold lower, 254 nM
